Test results published in the supplement of paper PMC10307832.

Columns and labels:
Assay in all cases: relative viability (nuclei count vs DMSO), 5 days (fraction); higher = more cells survive
Afatinib + Olaparib = compound: CN(C)C/C=C/C(=O)Nc1cc2c(Nc3ccc(F)c(Cl)c3)ncnc2cc1O[C@H]1CCOC1 [Afatinib] + O=C(c1cc(Cc2n[nH]c(=O)c3ccccc23)ccc1F)N1CCN(C(=O)C2CC2)CC1 [Olaparib] (partner 8 µM)
How it was run: (§1)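 Relative viability divides the nuclei count in treated wells by that in vehicle wells. Lung cancer cell lines were seeded in 1536-well plates, dosed by pin tool the next day, and fixed and stained after 5 days in one step with final 0.05% Triton X-100, 1% formaldehyde and 1 ug/ml Hoechst. Dosing was a single drug or a fixed anchor-drug dose plus five library-drug doses (not always all listed) in √10 steps, and values are medians of duplicate plates imaged at 4×.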

Afatinib + Pemetrexed = compound: CN(C)C/C=C/C(=O)Nc1cc2c(Nc3ccc(F)c(Cl)c3)ncnc2cc1O[C@H]1CCOC1 [Afatinib] + Nc1nc2[nH]cc(CCc3ccc(C(=O)N[C@@H](CCC(=O)O)C(=O)O)cc3)c2c(=O)[nH]1 [Pemetrexed] (partner 0.2 µM)
How it was run: as §1

Afatinib + Palbociclib = compound: CN(C)C/C=C/C(=O)Nc1cc2c(Nc3ccc(F)c(Cl)c3)ncnc2cc1O[C@H]1CCOC1 [Afatinib] + CC(=O)c1c(C)c2cnc(Nc3ccc(N4CCNCC4)cn3)nc2n(C2CCCC2)c1=O [Palbociclib] (partner 0.5 µM)
How it was run: as §1

Afatinib + Alpelisib = compound: CN(C)C/C=C/C(=O)Nc1cc2c(Nc3ccc(F)c(Cl)c3)ncnc2cc1O[C@H]1CCOC1 [Afatinib] + Cc1nc(NC(=O)N2CCC[C@H]2C(N)=O)sc1-c1ccnc(C(C)(C)C(F)(F)F)c1 [Alpelisib] (partner 2 µM)
How it was run: as §1

Row | Cell Line | relative viability (Afatinib + Olaparib; first compound 0.005 µM) | relative viability (Afatinib + Olaparib; first compound 0.01581 µM) | relative viability (Afatinib + Olaparib; first compound 0.05 µM) | relative viability (Afatinib + Olaparib; first compound 0.1581 µM) | relative viability (Afatinib + Olaparib; first compound 0.5 µM) | relative viability (Afatinib + Pemetrexed; first compound 0.005 µM) | relative viability (Afatinib + Pemetrexed; first compound 0.01581 µM) | relative viability (Afatinib + Pemetrexed; first compound 0.05 µM) | relative viability (Afatinib + Pemetrexed; first compound 0.1581 µM) | relative viability (Afatinib + Pemetrexed; first compound 0.5 µM) | relative viability (Afatinib + Palbociclib; first compound 0.005 µM) | relative viability (Afatinib + Palbociclib; first compound 0.01581 µM) | relative viability (Afatinib + Palbociclib; first compound 0.05 µM) | relative viability (Afatinib + Palbociclib; first compound 0.1581 µM) | relative viability (Afatinib + Palbociclib; first compound 0.5 µM) | relative viability (Afatinib + Alpelisib; first compound 0.005 µM) | relative viability (Afatinib + Alpelisib; first compound 0.01581 µM) | relative viability (Afatinib + Alpelisib; first compound 0.05 µM) | relative viability (Afatinib + Alpelisib; first compound 0.1581 µM) | relative viability (Afatinib + Alpelisib; first compound 0.5 µM)
1 | 201T | 0.846 | 0.826 | 0.752 | 0.78 | 0.854 | 0.294 | 0.353 | 0.379 | 0.38 | 0.31 | 0.336 | 0.346 | 0.354 | 0.358 | 0.339 | 1 | 0.961 | 0.922 | 0.918 | 0.935
2 | A549 | 0.321 | 0.451 | 0.359 | 0.304 | 0.375 |  |  |  |  |  |  |  |  |  |  | 0.629 | 0.632 | 0.631 | 0.61 | 0.642
3 | A-427 | 0.79 | 0.759 | 0.779 | 0.776 | 0.789 | 1.05 | 1.03 | 1.05 | 0.969 | 0.983 | 0.523 | 0.526 | 0.537 | 0.483 | 0.505 | 1.04 | 1.11 | 1.18 | 0.973 | 1.09
4 | ABC-1 | 0.779 |  | 1.04 | 1.04 | 0.561 |  |  |  |  |  | 0.559 |  | 0.576 | 0.572 | 0.561 | 1.26 | 0.856 | 0.947 | 0.931 | 0.988
5 | BEN | 1.23 | 1.23 | 1.18 | 1.11 | 1.08 | 0.801 | 0.785 | 0.753 | 0.772 | 0.819 | 0.447 | 0.565 | 0.535 | 0.455 | 0.484 | 1.25 | 1.07 | 1.18 | 1.06 | 1.1
6 | CAL-12T | 0.763 | 0.668 | 0.616 | 0.47 | 0.497 | 1.22 | 0.928 | 1.46 | 0.491 | 0.855 | 0.51 | 0.209 | 0.213 | 0.172 | 0.161 | 1.18 | 0.973 | 0.929 |  | 0.584
7 | COR-L23 | 0.325 | 0.325 | 0.358 | 0.369 | 0.366 | 0.22 | 0.201 | 0.214 | 0.201 | 0.192 | 0.329 | 0.308 | 0.317 | 0.274 | 0.339 | 0.922 | 0.728 | 0.935 | 0.685 | 0.752
8 | COR-L 105 | 0.737 | 0.483 | 0.422 | 0.331 | 0.34 | 0.837 | 0.503 | 0.542 | 0.353 | 0.377 | 0.398 | 0.355 | 0.3 | 0.36 | 0.352 | 0.934 | 0.45 | 0.353 | 0.255 | 0.241
9 | Calu-6 | 0.565 | 0.565 | 0.607 | 0.573 | 0.545 |  |  |  |  |  |  |  |  |  |  | 1.05 | 0.922 | 1.03 | 1.01 | 0.88
10 | ChaGo-K-1 | 0.466 | 0.439 | 0.447 | 0.396 | 0.397 | 0.246 | 0.262 | 0.268 | 0.257 | 0.247 | 0.932 | 0.977 | 0.977 | 0.864 | 0.96 |  |  |  |  | 
11 | IA-LM | 1.07 | 0.821 | 0.947 | 0.761 | 0.805 |  |  |  |  |  |  |  |  |  |  | 0.653 | 0.658 | 0.691 | 0.693 | 0.797
12 | NCI-H522 | 0.573 | 0.726 | 0.639 | 0.532 | 0.464 | 0.928 | 0.889 | 0.916 | 0.666 | 0.807 | 1 | 1.05 | 1.15 | 0.881 | 0.675 |  |  |  |  | 
13 | NCI-H596 | 0.706 | 0.707 | 0.697 | 0.58 | 0.685 | 0.537 | 0.492 | 0.504 | 0.548 | 0.489 |  |  |  |  |  | 0.542 | 0.512 | 0.528 | 0.385 | 0.538
14 | NCI-H727 | 0.827 | 0.824 | 0.606 | 0.572 | 0.815 |  |  |  |  |  | 0.586 | 0.637 | 0.6 | 0.506 | 0.544 | 0.579 | 0.462 | 0.503 | 0.417 | 0.561
15 | NCI-H1299 | 0.981 | 0.948 | 0.991 | 1.02 | 0.988 |  |  |  |  |  |  |  |  |  |  | 1.05 | 1.04 | 1.12 | 1.08 | 1.04
16 | NCI-H1563 |  |  |  |  |  | 0.782 | 0.719 | 0.921 | 0.777 | 0.822 |  |  |  |  |  | 0.953 | 0.953 | 0.87 | 0.83 | 1.03
17 | NCI-H1648 | 0.978 | 0.617 | 0.391 | 0.323 | 0.469 | 0.99 | 1.1 | 0.458 | 0.431 | 0.426 | 0.248 | 0.304 | 0.269 | 0.344 | 0.263 |  |  |  |  | 
18 | NCI-H1650 | 0.784 | 0.708 | 0.804 | 0.712 | 0.547 | 0.31 | 0.291 | 0.344 | 0.284 | 0.3 | 0.299 | 0.257 | 0.305 | 0.347 | 0.269 |  |  |  |  | 
19 | NCI-H1703 | 0.538 |  | 0.411 | 0.297 | 0.445 |  |  |  |  |  |  |  |  |  |  | 0.313 | 0.322 | 0.286 | 0.278 | 0.314
20 | NCI-H2342 | 0.375 | 0.457 | 0.411 | 0.347 | 0.406 | 0.763 | 0.762 | 0.706 | 0.777 | 0.747 | 0.528 | 0.497 | 0.473 | 0.424 | 0.475 |  |  |  |  | 
